Results as given in PubChem BioAssay AID2060898 (Molecular Pharmacology Branch, DTP, NCI, 2025).

Tested on: 616215-338-R-J1-PDC complex spheroid viability
Test: Anticancer human tumor 616215-338-R-J1-PDC patient-derived colon adenocarcinoma cell line growth inhibition [RAS]
Details: for IC50: curve of first compound; for viability, T/C: stronger effect = lower value
Description: RAS pathway inhibitors in Combinations in Complex Spheroids
A high-throughput screen of multi-cell type tumor spheroids was designed to identify active combinations of RAS pathway inhibitors and targeted small molecules. Complex spheroids include a stromal component modeled by human endothelial cells (HUVEC) and fibroblasts modeled by human mesenchymal stem cells (MSCs). The concentration ranges selected for each drug and investigational agent were based upon clinically achievable concentrations if the clinical Cmax of the agent was known.
Compounds. The drugs and investigational agents: abemaciclib (NSC768073), cobimetinib (NSC768068), divarasib (GDC6063, NSC841802), docetaxel (NSC628503), GDC-1971 (RLY-1971, NSC841576), gemcitabine (NSC613327), inavolisib (NSC800729), ipatasertib (NSC767898), KB-0742 (NSC834161), MRTX-1133 (NSC836407), osimertinib (NSC779217), RMC-4630 (NSC839698), RMC-6236 (NSC851965), RMC-6291 (NSC852671), Ro-3306 (NSC812927), sapanisertib (NSC764658), SN-38 (NSC673596), staurosporine (NSC755774), SY5609 (NSC837396), and tovorafenib (DAY101, NSC766906), were obtained from the National Cancer Institute (NCI) Developmental Therapeutics Program Chemical Repository. The FDA-approved anticancer drug set is available from the NCI Developmental Therapeutics Program. […] The stock solutions were prepared in dimethyl sulfoxide (DMSO, Sigma-Aldrich, St. Louis, MO, cat. D2650) at 800-fold the tested concentration and stored at -70 degrees C prior to their use. All drugs and investigational agents were tested over a range starting from a high concentration at or near the clinical Cmax and decreasing in half-log increments. If the clinical Cmax for an agent had not been determined, the highest concentration tested was 10 microM.
Cell Culture. All cells were maintained in an incubator at 37 degrees C and 5% CO2 with 95% humidity. The PDC lines were cultured according to standard operating procedures established by the NCI PDMR. All PDCs were thawed and cultured in Matrigel-coated flasks prepared with a working solution of 1X Ham's F-12 nutrient mix, without supplementation (Invitrogen, Waltham, MA, cat. 11765054), 100 U/mL penicillin-streptomycin (Invitrogen, cat. 15140122), and 2.5% Matrigel (Corning Inc., Corning, NY, cat. 354248) for the first three passages. The 362531-283-R-J2-PDC and 782815-120-R-J1-PDC lines were cultured in 6C/Colon 1B media, which includes advanced DMEM/F-12 (Thermo Fisher Scientific, cat. 12634028), 10 mM HEPES (Thermo Fisher Scientific, cat. 15630080), 1X GlutaMAX supplement (Thermo Fisher Scientific, cat. 35050061), 0.1 mg/mL primocin (InvivoGen, San Diego, CA, cat. ant-pm-2), 10% defined fetal bovine serum, heat inactivated (HyClone Laboratories Inc., Logan, UT, cat. SH30070.03HI), 50% L-WRN conditioned media (ATCC, cat. CRL-3276), 1.25 mM N-Acetyl-L-cysteine (Sigma-Aldrich, cat. A9165), 10 mM nicotinamide (Sigma-Aldrich, cat. N0636), 1X B-27 supplement (Thermo Fisher Scientific, cat. 17504044), 1X N-2 supplement (Thermo Fisher Scientific, cat. 17502048), 50 ng/mL human EGF (Thermo Fisher Scientific, cat. PHG0311), and 10 microM Y-27632 dihydrochloride (Tocris Bioscience, cat. 1254). The K12877-001-R-J1-PDC line was cultured in 6I media, which includes all 6C/Colon 1B media plus 10 ng/mL human FGF-10 (PeproTech, cat. 100-26), 1 ng/mL human FGF-2 (PeproTech, cat. 100-18B), 1 µM prostaglandin E2 (Tocris Bioscience, cat. 2296), […] hydrocortisone (Sigma-Aldrich, cat. H4001), and […] bovine insulin (Sigma-Aldrich, cat. I6634). The K86415-001-R-J1-PDC line was cultured in 6D media, which includes all 6C/Colon 1B media components minus the L-WRN conditioned media. The 485176-168-R4-J1-PDC was cultured in PANC media, which includes all 6C/Colon 1B media plus 100 ng/mL human FGF-10 (PeproTech, cat. 100-26), 500 nM SB-431542 (Selleckchem, cat. S1067), and 10 nM gastrin (Tocris Bioscience, cat. 3006). […]
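Further: spheroids exposed to agents for seven days before viability readout.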
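Wherever viability, T/C is given: 100% = DMSO vehicle control viability.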

CC(C)n1nc(-c2ccc3oc(N)nc3c2)c2c(N)ncnc21 + C#Cc1c(F)ccc2cc(O)cc(-c3ncc4c(N5CC6CCC(C5)N6)nc(OCC56CCCN5CC(F)C6)nc4c3F)c12
IC50 (second compound 0.0316 µM): > 0.1 µM | IC50 (second compound 0.1 µM): > 0.1 µM | IC50 (second compound 0.316 µM): > 0.1 µM | IC50 (second compound 1 µM): > 0.1 µM | IC50 (second compound 3.16 µM): 0.0599 µM | IC50 (second compound 10 µM): 0.0139 µM | viability, T/C (second compound 0.0316 µM, first compound 0.000316 µM): 113% | viability, T/C (second compound 0.0316 µM, first compound 0.001 µM): 119% | viability, T/C (second compound 0.0316 µM, first compound 0.00316 µM): 112% | viability, T/C (second compound 0.0316 µM, first compound 0.01 µM): 114% | viability, T/C (second compound 0.0316 µM, first compound 0.0316 µM): 104% | viability, T/C (second compound 0.0316 µM, first compound 0.1 µM): 57.1% | viability, T/C (second compound 0.1 µM, first compound 0.000316 µM): 116% | viability, T/C (second compound 0.1 µM, first compound 0.001 µM): 107% | viability, T/C (second compound 0.1 µM, first compound 0.00316 µM): 113% | viability, T/C (second compound 0.1 µM, first compound 0.01 µM): 106% | viability, T/C (second compound 0.1 µM, first compound 0.0316 µM): 107% | viability, T/C (second compound 0.1 µM, first compound 0.1 µM): 58% | viability, T/C (second compound 0.316 µM, first compound 0.000316 µM): 116% | viability, T/C (second compound 0.316 µM, first compound 0.001 µM): 111% | viability, T/C (second compound 0.316 µM, first compound 0.00316 µM): 112% | viability, T/C (second compound 0.316 µM, first compound 0.01 µM): 112% | viability, T/C (second compound 0.316 µM, first compound 0.0316 µM): 99.9% | viability, T/C (second compound 0.316 µM, first compound 0.1 µM): 54.9% | viability, T/C (second compound 1 µM, first compound 0.000316 µM): 118% | viability, T/C (second compound 1 µM, first compound 0.001 µM): 111% | viability, T/C (second compound 1 µM, first compound 0.00316 µM): 121% | viability, T/C (second compound 1 µM, first compound 0.01 µM): 116% | viability, T/C (second compound 1 µM, first compound 0.0316 µM): 111% | viability, T/C (second compound 1 µM, first compound 0.1 µM): 54.2% | viability, T/C (second compound 3.16 µM, first compound 0.000316 µM): 86.8% | viability, T/C (second compound 3.16 µM, first compound 0.001 µM): 105% | viability, T/C (second compound 3.16 µM, first compound 0.00316 µM): 98.3% | viability, T/C (second compound 3.16 µM, first compound 0.01 µM): 77.9% | viability, T/C (second compound 3.16 µM, first compound 0.0316 µM): 67.9% | viability, T/C (second compound 3.16 µM, first compound 0.1 µM): 37.2% | viability, T/C (second compound 10 µM, first compound 0.000316 µM): 76.8% | viability, T/C (second compound 10 µM, first compound 0.001 µM): 64.2% | viability, T/C (second compound 10 µM, first compound 0.00316 µM): 68.2% | viability, T/C (second compound 10 µM, first compound 0.01 µM): 49.2% | viability, T/C (second compound 10 µM, first compound 0.0316 µM): 44.2% | viability, T/C (second compound 10 µM, first compound 0.1 µM): 27.9%
